Reference: patent publication US10385022B2, “3-amino-pyridines as GPBAR1 agonists” (HOFFMANN-LA ROCHE INC., priority 2011, dated 2019)

Target: human GPBAR1 receptor (Homo sapiens (Human), UniProt Q8TDU6)
Assay: functional cAMP assay in CHO-dhfr(minus) cells expressing human GPBAR1 receptors
Type: cell-based
Settings: CHO-dhfr(minus) cells expressing human GPBAR1, 30 min at 30° C.
Procedure, shortened: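 CHO-dhfr- cells were transfected with human GPBAR1, and a clone was chosen by cAMP response to lithocholic acid. EC50 values come from the cAMP read-out; specificity was checked in non-transfected CHO cells.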

human GPBAR1 receptor, sequence (Q8TDU6 whole entry): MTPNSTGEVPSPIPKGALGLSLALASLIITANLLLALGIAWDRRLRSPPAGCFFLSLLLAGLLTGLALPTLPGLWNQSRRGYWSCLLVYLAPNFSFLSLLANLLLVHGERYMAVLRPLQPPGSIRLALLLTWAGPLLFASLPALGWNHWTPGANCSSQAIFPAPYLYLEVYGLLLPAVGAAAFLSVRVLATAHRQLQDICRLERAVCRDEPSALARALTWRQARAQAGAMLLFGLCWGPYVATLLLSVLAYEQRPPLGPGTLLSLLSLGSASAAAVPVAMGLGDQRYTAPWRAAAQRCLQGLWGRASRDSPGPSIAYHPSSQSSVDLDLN

Row | SMILES | EC50 [µM]
1 | CN(C(=O)c1cc(C(F)(F)F)cc(C(F)(F)F)c1)c1cnccc1-c1ccc(F)cc1OCCO [Example 52, N-{4-[4-Fluoro-2-(2-hydroxy-ethoxy)-phenyl]-pyridin-3-yl}-N-methyl-3,5-bis-trifluoromethyl-benzamide] | 0.463
2 | COc1cc(F)ccc1-c1ccncc1N(C)C(=O)c1cc(C(F)(F)F)cc(S(=O)(=O)CCCCC(=O)O)c1 [Example 248, 5-(3-{[4-(4-Fluoro-2-methoxy-phenyl)-pyridin-3-yl]-methyl-carbamoyl}-5-trifluoromethyl-benzenesulfonyl)-pentanoic acid] | 0.323
3 | CS(=O)(=O)c1cc(C(=O)N(CC(N)=O)c2cnccc2-c2ccccc2OC(F)(F)F)cc(C(F)(F)F)c1 [Example 319, N-Carbamoylmethyl-3-methanesulfonyl-N-[4-(2-trifluoromethoxy-phenyl)-pyridin-3-yl]-5-trifluoromethyl-benzamide] | 3.34
4 | CS(=O)(=O)c1cc(C(=O)N(CC(F)(F)F)c2cnccc2-c2ccccc2OC(F)(F)F)cc(C(F)(F)F)c1 [Example 298, 3-Methanesulfonyl-N-(2,2,2-trifluoro-ethyl)-N-[4-(2-trifluoromethoxy-phenyl)-pyridin-3-yl]-5-trifluoromethyl-benzamide] | 0.788
5 | COc1cc(F)ccc1-c1ccncc1N(C)C(=O)c1cc(O)cc(C(F)(F)F)c1 [Example 226, N-[4-(4-Fluoro-2-methoxy-phenyl)-pyridin-3-yl]-3-hydroxy-N-methyl-5-trifluoromethyl-benzamide] | 0.958
6 | CCOC(=O)CCc1cc(C(=O)N(C)c2cnccc2-c2ccc(F)cc2OC)cc(C(F)(F)F)c1 [Example 266, 3-(3-{[4-(4-Fluoro-2-methoxy-phenyl)-pyridin-3-yl]-methyl-carbamoyl}-5-trifluoromethyl-phenyl)-propionic acid ethyl ester] | 0.177
7 | Cc1ccccc1-c1ccncc1N(C)C(=O)c1cc(N2CCCC2=O)cc(C(F)(F)F)c1 [Example 185, N-Methyl-3-(2-oxo-pyrrolidin-1-yl)-N-(4-o-tolyl-pyridin-3-yl)-5-trifluoromethyl-benzamide] | 2.41
8 | COc1ncccc1-c1ccncc1N(CC(F)(F)F)C(=O)c1cc(F)cc(C(F)(F)F)c1 [Example 141, 3-Fluoro-N-(2-methoxy-[3,4′]bipyridinyl-3′-yl)-N-(2,2,2-trifluoro-ethyl)-5-trifluoromethyl-benzamide] | 1.66
9 | Cc1nc(C)c(-c2ccncc2N(C)C(=O)c2cc(C(F)(F)F)cc(C(F)(F)F)c2)s1 [Example 209, N-[4-(2,4-Dimethyl-thiazol-5-yl)-pyridin-3-yl]-N-methyl-3,5-bis-trifluoromethyl-benzamide] | 1.47
10 | CS(=O)(=O)CCN(C(=O)c1cc(C(F)(F)F)nc(C(F)(F)F)c1)c1cnccc1-c1ccccc1F [Example 159, N-[4-(2-Fluoro-phenyl)-pyridin-3-yl]-N-(2-methanesulfonyl-ethyl)-2,6-bis-trifluoromethyl-isonicotinamide] | 0.326
11 | COc1cc(F)ccc1-c1ccncc1N(CC1CCCCO1)C(=O)c1cc(C(F)(F)F)cc(S(C)(=O)=O)c1 (single isomer, unassigned; (+)) [Example 291, (+)-N-[4-(4-Fluoro-2-methoxy-phenyl)-pyridin-3-yl]-3-methanesulfonyl-N-[1-(tetrahydro-pyran-2-yl)methyl]-5-trifluoromethyl-benzamide] | 2.84
12 | COc1cc(F)ccc1-c1cc(C)ncc1N(C)C(=O)c1cc(Cl)cc(S(C)(=O)=O)c1 [Example 301, 3-Chloro-N-[4-(4-fluoro-2-methoxy-phenyl)-6-methyl-pyridin-3-yl]-5-methanesulfonyl-N-methyl-benzamide] | 0.219
13 | COc1nccc(-c2ccncc2N(C)C(=O)c2cc(C(F)(F)F)cc(C(F)(F)F)c2)c1Cl [Example 50, N-(3′-Chloro-2′-methoxy-[4,4′]bipyridinyl-3-yl)-N-methyl-3,5-bis-trifluoromethyl-benzamide] | 0.678
14 | COC(=O)CN(C(=O)c1cc(C(F)(F)F)cc(S(C)(=O)=O)c1)c1cnccc1-c1ccccc1F [Example 213, [[4-(2-Fluoro-phenyl)-pyridin-3-yl]-(3-methanesulfonyl-5-trifluoromethyl-benzoyl)-amino]-acetic acid methyl ester] | 0.253
15 | COc1cc(F)ccc1-c1ccncc1N(Cc1nc(C)co1)C(=O)c1cc(C(F)(F)F)cc(S(C)(=O)=O)c1 [Example 293, N-[4-(4-Fluoro-2-methoxy-phenyl)-pyridin-3-yl]-3-methanesulfonyl-N-(4-methyl-oxazol-2-ylmethyl)-5-trifiuoromethyl-benzamide] | 2.46
16 | COc1cc(F)ccc1-c1ccncc1N(C[C@@H]1CCCOC1)C(=O)c1cc(C(F)(F)F)cc(S(C)(=O)=O)c1 [Example 299, (+)-N-[4-(4-Fluoro-2-methoxy-phenyl)-pyridin-3-yl]-3-methanesulfonyl-N-[1-(tetrahydro-pyran-3-yl)methyl]-5-trifluoromethyl-benzamide] | 0.952

Compounds with a lower EC50, results first:

Row | EC50 [µM] | SMILES
17 | 0.17 | Cc1ccccc1-c1ccncc1N(C)C(=O)c1cc(Cl)nc(Cl)c1 [Example 120, 2,6-Dichloro-N-methyl-N-(4-o-tolyl-pyridin-3-yl)-isonicotinamide]
18 | 0.168 | COc1cc(F)ccc1-c1ccncc1N(C)C(=O)c1cc(Br)cc(OC(F)(F)F)c1 [Example 246, 3-Bromo-N-[4-(4-fluoro-2-methoxy-phenyl)-pyridin-3-yl]-N-methyl-5-trifluoromethoxy-benzamide]
19 | 0.157 | COc1cc(F)ccc1-c1cc(C)ncc1N(C)C(=O)c1cc(C(F)(F)F)cc(S(C)(=O)=O)c1 [Example 202, N-[4-(4-Fluoro-2-methoxy-phenyl)-6-methyl-pyridin-3-yl]-3-methanesulfonyl-N-methyl-5-trifluoromethyl-benzamide]
20 | 0.133 | COc1cc(F)ccc1-c1ccncc1N(C)C(=O)c1cc(C(F)(F)F)cc(S(=O)(=O)CCNS(C)(=O)=O)c1 [Example 270, N-[4-(4-Fluoro-2-methoxy-phenyl)-pyridin-3-yl]-3-(2-methanesulfonylamino-ethanesulfonyl)-N-methyl-5-trifluoromethyl-benzamide]
21 | 0.118 | COc1ncccc1-c1ccncc1N(CC(F)(F)F)C(=O)c1cc(C(F)(F)F)cc(S(=O)(=O)N(C)C)c1 [Example 170, 3-Dimethylsulfamoyl-N-(2-methoxy-[3,4′]bipyridinyl-3′-yl)-N-(2,2,2-trifluoro-ethyl)-5-trifluoromethyl-benzamide]
22 | 0.107 | CN(C(=O)c1cc(C(F)(F)F)cc(C(F)(F)F)c1)c1cnccc1-c1cccc(F)c1F [Example 40, N-[4-(2,3-Difluoro-phenyl)-pyridin-3-yl]-N-methyl-3,5-bis-trifluoromethyl-benzamide]
23 | 0.105 | NC(=O)CN(C(=O)c1cc(C(F)(F)F)nc(C(F)(F)F)c1)c1cnccc1-c1ccccc1F [Example 197, N-Carbamoylmethyl-N-[4-(2-fluoro-phenyl)-pyridin-3-yl]-2,6-bis-trifluoromethyl-isonicotinamide]
24 | 0.092 | Cc1ccccc1-c1ccncc1N(C)C(=O)c1ccc(Cl)c(C(F)(F)F)c1 [Example 95, 4-Chloro-N-methyl-N-(4-o-tolyl-pyridin-3-yl)-3-trifluoromethyl-benzamide]
25 | 0.07 | COC(=O)CN(C(=O)c1cc(C(F)(F)F)cc(C(F)(F)F)c1)c1cnccc1-c1cc(F)c(F)cc1OC [Example 188, {(3,5-Bis-trifluoromethyl-benzoyl)-[4-(4,5-difluoro-2-methoxy-phenyl)-pyridin-3-yl]-amino}-acetic acid methyl ester]
26 | 0.066 | O=C(c1cc(C(F)(F)F)cc(C(F)(F)F)c1)N(CCO)c1cnccc1-c1ccccc1Cl [Example 115, N-[4-(2-Chloro-phenyl)-pyridin-3-yl]-N-(2-hydroxy-ethyl)-3,5-bis-trifluoromethyl-benzamide]
27 | 0.066 | COC(=O)CN(C(=O)c1cc(C(F)(F)F)cc(C(F)(F)F)c1)c1cnccc1-c1ccccc1Cl [Example 88, {(3,5-Bis-trifluoromethyl-benzoyl)-[4-(2-chloro-phenyl)-pyridin-3-yl]-amino}-acetic acid methyl ester]
28 | 0.056 | CN(C(=O)c1cc(C(F)(F)F)cc(C(F)(F)F)c1)c1cnccc1-c1ccc(F)cc1Cl [Example 67, N-[4-(2-Chloro-4-fluoro-phenyl)-pyridin-3-yl]-N-methyl-3,5-bis-trifluoromethyl-benzamide]
29 | 0.042 | COc1cc(F)ccc1-c1ccncc1N(C)C(=O)c1cc(C(F)(F)F)cc(S(C)(=O)=O)c1 [Example 138, N-[4-(4-Fluoro-2-methoxy-phenyl)-pyridin-3-yl]-3-methanesulfonyl-N-methyl-5-trifluoromethyl-benzamide]
30 | 0.038 | COc1cc(F)ccc1-c1ccncc1N(C)C(=O)c1cc(SCCO)cc(C(F)(F)F)c1 [Example 216, N-[4-(4-Fluoro-2-methoxy-phenyl)-pyridin-3-yl]-3-(2-hydroxy-ethylsulfanyl)-N-methyl-5-trifluoromethyl-benzamide]
31 | 0.033 | COc1cccc(F)c1-c1ccncc1N(CC(N)=O)C(=O)c1cc(C(F)(F)F)nc(C(F)(F)F)c1 [Example 199, N-Carbamoylmethyl-N-[4-(2-fluoro-6-methoxy-phenyl)-pyridin-3-yl]-2,6-bis-trifluoromethyl-isonicotinamide]
32 | 0.018 | COc1cc(F)ccc1-c1cc(C)ncc1N(C)C(=O)c1cc(Br)cc(C(F)(F)F)c1 [Example 303, 3-Bromo-N-[4-(4-fluoro-2-methoxy-phenyl)-6-methyl-pyridin-3-yl]-N-methyl-5-trifluoromethyl-benzamide]
33 | 0.014 | CN(C(=O)c1cc(C(F)(F)F)cc(C(F)(F)F)c1)c1cnccc1-c1ccccc1F [Example 25, N-[4-(2-Fluoro-phenyl)-pyridin-3-yl]-N-methyl-3,5-bis-trifluoromethyl-benzamide]
34 | 0.008 | COc1cccc(F)c1-c1ccncc1N(C)C(=O)c1cc(C(F)(F)F)cc(C(F)(F)F)c1 [Example 66, N-[4-(2-Fluoro-6-methoxy-phenyl)-pyridin-3-yl]-N-methyl-3,5-bis-trifluoromethyl-benzamide]
